# Activity calls are given as the source filed them. No cut-off for these calls is given here.
# Key:
# PC-12 [1] = assay: Induction of neurite outgrowth in rat PC12 cells in absence of nerve growth factor at 0.1 to 10.0 uM; type: functional, cell-based
# PC-12 [2] = assay: Induction of neurite outgrowth in rat PC12 cells in presence of nerve growth factor at 0.1 to 10.0 uM; type: functional, cell-based
SMILES,Activity (PC-12 [1]),Activity (PC-12 [2])
CC1=CCC[C@@H]2[C@]3(CCc4ccoc4)C(=O)O[C@H](C[C@@]12C)[C@H]3C,inactive,inactive
CO[C@H]1O[C@@H]2C[C@@]3(C)C(C)=CCC[C@@H]3[C@@]1(CCc1ccoc1)[C@@H]2C,inactive,inactive

# — ChEMBL document CHEMBL1140173, “Clerodane diterpenoids with NGF-potentiating activity from Ptychopetalum olacoides” (J Nat Prod, 2008)
